Calls of active or inactive are those of the source.
What was measured:
[1] = target: Beta Lactamase (Pseudomonas aeruginosa, UniProt Q932Y6); test: BLA reporter interference, concentration series – BLA reporter cells, FRET fluorescence, artefact control for TLR9-MyD88 binding inhibitor project, dose response (AID 588341); assay type: cell-based;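 further: cell based assay in CHO-K1 cells stably expressing beta-lactamase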
[2] = target: T1, Protein skinhead-1 (Caenorhabditis elegans, UniProt P34707); assay type: functional
T1 sequence (P34707 whole entry): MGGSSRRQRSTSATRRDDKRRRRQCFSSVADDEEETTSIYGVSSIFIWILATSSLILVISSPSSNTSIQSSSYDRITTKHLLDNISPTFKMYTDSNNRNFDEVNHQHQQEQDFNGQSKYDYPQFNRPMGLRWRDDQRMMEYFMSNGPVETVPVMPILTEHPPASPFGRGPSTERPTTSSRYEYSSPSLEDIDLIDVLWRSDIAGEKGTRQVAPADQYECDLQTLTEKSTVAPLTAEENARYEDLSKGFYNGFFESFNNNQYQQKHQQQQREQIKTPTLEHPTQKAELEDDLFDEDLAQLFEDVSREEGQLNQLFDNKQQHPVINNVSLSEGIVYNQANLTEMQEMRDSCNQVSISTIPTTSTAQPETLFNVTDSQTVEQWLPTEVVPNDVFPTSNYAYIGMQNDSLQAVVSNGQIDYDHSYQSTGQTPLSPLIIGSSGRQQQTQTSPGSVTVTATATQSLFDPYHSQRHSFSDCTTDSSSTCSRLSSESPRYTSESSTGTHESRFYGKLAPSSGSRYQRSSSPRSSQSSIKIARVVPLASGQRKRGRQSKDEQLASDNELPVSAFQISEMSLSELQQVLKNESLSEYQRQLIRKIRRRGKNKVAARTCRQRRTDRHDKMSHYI

[3] = system: CHO; test: CHO cell viability loss, potency – luminescence, cytotoxicity control for TLR9-MyD88 binding inhibitor project, dose response (AID 588339); assay type: functional, cell-based, hamster; settings: Cricetulus griseus;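 further: CHO cells stably coexpressing TLR9 and MyD88 fusions from primary screen; compound exposure lasted 48 hours before viability readout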
[4] = target: Voltage-dependent T-type calcium channel subunit alpha-1H (Homo sapiens, UniProt O95180); assay type: functional;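 further: channel activity triggered by adding a high calcium stimulation buffer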
[5] = target: T2, Low molecular weight phosphotyrosine protein phosphatase (Homo sapiens, UniProt P24666); assay type: functional; settings: read-out: IC50_Mean
T2 sequence (P24666 whole entry): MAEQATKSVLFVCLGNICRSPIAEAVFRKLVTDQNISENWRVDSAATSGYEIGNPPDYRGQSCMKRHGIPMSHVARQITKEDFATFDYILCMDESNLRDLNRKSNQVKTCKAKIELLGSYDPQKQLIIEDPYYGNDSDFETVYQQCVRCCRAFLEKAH

[6] = target: T2, Low molecular weight phosphotyrosine protein phosphatase; assay type: functional; settings: read-out: IC50_Mean; remark: listed apart in the source
[7] = activation of miR-122 Renilla sensor silencing – cell-based, Huh7 psiCHECK-miR122, Renilla luciferase, cherry-picked, dose response (AID 651956); assay type: functional;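 further: huh7 hepatoma cells stably carrying a psiCHECK-2 miR-122 sensor plasmid; renilla luciferase signal reporting endogenous miR-122 activity after 48 h compound exposure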
[8] = target: T3, Caspase-6 (Homo sapiens, UniProt P55212); test: inhibition of CASP6 peptide cleavage – biochemical, VEID-R110 fluorescence, cherry-pick, dose response (AID 720632)
T3 sequence (P55212 whole entry): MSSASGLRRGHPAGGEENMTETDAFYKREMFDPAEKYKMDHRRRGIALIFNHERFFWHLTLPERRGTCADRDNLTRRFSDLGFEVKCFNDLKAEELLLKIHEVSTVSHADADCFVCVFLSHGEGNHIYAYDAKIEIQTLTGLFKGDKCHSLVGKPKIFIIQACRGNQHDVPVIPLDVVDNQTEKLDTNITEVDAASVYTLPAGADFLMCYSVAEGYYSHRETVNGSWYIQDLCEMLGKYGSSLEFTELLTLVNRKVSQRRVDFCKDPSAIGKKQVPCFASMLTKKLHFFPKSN

[9] = non-specific 3'UTR reporter inhibition in Clone20-Shn3RL – cell-based, Renilla luciferase, cherry-picked, counter-screen for Shn3 inhibitor project, dose response (AID 624133); assay type: functional
[10] = target: DNA (cytosine-5)-methyltransferase 1 (Homo sapiens, UniProt P26358); test: inhibition of DNA methylation by DNMT1 – biochemical, fluorescent molecular beacon, confirmation (AID 602386); assay type: functional
[11] = target: Intestinal-type alkaline phosphatase (Homo sapiens, UniProt P09923); test: inhibition of human intestinal alkaline phosphatase – biochemical, dose response (AID 488876); assay type: functional
[12] = target: T4, Alkaline phosphatase, tissue-nonspecific isozyme (Homo sapiens, UniProt P05186); test: TNAP enzyme inhibition by screening hits, dose response, selectivity assay for mouse IAP inhibitor project, biochemical, human TNAP, uHTS hits (AID 488906); assay type: functional
T4 sequence (P05186 whole entry): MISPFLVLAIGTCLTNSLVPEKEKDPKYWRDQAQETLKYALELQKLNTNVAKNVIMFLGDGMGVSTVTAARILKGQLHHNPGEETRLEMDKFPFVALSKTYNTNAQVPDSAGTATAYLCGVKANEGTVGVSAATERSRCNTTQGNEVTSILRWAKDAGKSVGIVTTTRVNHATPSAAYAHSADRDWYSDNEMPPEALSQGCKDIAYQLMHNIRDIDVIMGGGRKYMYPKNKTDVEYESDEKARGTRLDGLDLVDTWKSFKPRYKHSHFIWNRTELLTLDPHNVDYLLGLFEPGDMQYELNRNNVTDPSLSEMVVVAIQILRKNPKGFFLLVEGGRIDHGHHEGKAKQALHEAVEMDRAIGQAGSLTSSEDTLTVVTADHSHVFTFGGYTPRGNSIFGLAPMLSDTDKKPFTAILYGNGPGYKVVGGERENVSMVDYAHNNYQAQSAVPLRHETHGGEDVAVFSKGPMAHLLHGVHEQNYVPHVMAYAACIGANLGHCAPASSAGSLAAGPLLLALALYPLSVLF

[13] = target: Intestinal-type alkaline phosphatase (Mus musculus, UniProt P24822); test: PubChem AID 488785; assay type: functional
[14] = target: Mitochondrial peptide methionine sulfoxide reductase (Bos taurus, UniProt P54149); assay type: functional;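 further: absorbance read-out, biochemical high-throughput dose-response screen for MsrA inhibitors, confirmatory; recombinant bovine MsrA coupled to E. coli TrxB with NADPH and selenocystamine; potency is for inhibitors of MsrA activity on DMSO substrate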
[15] = NIH3T3 cell viability loss – ATP luminescence, mouse fibroblasts, counter-screen, dose response (AID 2010); assay type: functional, cell-based;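 further: cells exposed to compound for about 90 hours before reading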
[16] = system: Vero; test: inhibition of WNV-induced cytopathic effect – cell-based, CPE readout (AID 1621); assay type: functional; settings: Chlorocebus sabaeus
[17] = Trypanosoma cruzi growth suppression in host cells – NIH3T3 host cells, beta-gal luminescence, confirmation (AID 2044); assay type: functional, cell-based;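 further: intracellular parasites grown in NIH/3T3 mouse fibroblasts as host cells; luminescent beta-galactosidase reporter signal from transgenic T. cruzi replicating inside host cells; inhibitors lower the luminescence signal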
[18] = target: Melanocortin receptor 4 (Homo sapiens, UniProt P32245); assay type: functional, cell-based;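 further: Cell-based assay with luminescence read-out, confirmatory dose-response testing for agonist activity of biased ligands at MC4R; human U2OS cells with tagged receptor and beta-arrestin; potency of agonists that increase receptor coupling to beta-arrestin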
[19] = target: Ras and Rab interactor 1/Tyrosine-protein kinase ABL1 (Homo sapiens, UniProt P00519+Q13671); assay type: functional;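 further: biochemical TR-FRET dose-response test measuring inhibition of binding between Rin1 and Abl proteins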
[20] = target: 26S proteasome non-ATPase regulatory subunit 14 (Homo sapiens, UniProt O00487); test: inhibition of proteasome subunit RPN11 – biochemical, fluorescence polarization, uHTS hits, confirmation (AID 602368); assay type: functional
[21] = target: Prothrombin (Bos taurus, UniProt P00735); test: thrombin protease inhibitors – biochemical, fluorescence polarization, uHTS hits, dose response (AID 602369); assay type: functional
[22] = target: 72 kDa type IV collagenase (Homo sapiens, UniProt P08253); test: Dose Response validation of uHTS RPN11 inhibitor hits using a MMP-2 Fluorescence assay.; assay type: functional
[23] = target: Cytochrome P450 3A4 (Homo sapiens, UniProt P08684);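 further: CYP3A4 tested as one member of a cytochrome P450 panel screen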
[24] = system: P388; test: cells; assay type: functional; settings: Mus musculus
[25] = system: SN12K1; test: cells; assay type: functional; settings: Homo sapiens
[26] = system: P388/ADR; test: cells; assay type: functional; settings: Mus musculus
[27] = target: T5, Aryl hydrocarbon receptor (Homo sapiens, UniProt P35869); settings: Potency;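 further: confirmatory quantitative high-throughput screen measuring activation of the AhR signaling pathway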
T5 sequence (P35869 whole entry): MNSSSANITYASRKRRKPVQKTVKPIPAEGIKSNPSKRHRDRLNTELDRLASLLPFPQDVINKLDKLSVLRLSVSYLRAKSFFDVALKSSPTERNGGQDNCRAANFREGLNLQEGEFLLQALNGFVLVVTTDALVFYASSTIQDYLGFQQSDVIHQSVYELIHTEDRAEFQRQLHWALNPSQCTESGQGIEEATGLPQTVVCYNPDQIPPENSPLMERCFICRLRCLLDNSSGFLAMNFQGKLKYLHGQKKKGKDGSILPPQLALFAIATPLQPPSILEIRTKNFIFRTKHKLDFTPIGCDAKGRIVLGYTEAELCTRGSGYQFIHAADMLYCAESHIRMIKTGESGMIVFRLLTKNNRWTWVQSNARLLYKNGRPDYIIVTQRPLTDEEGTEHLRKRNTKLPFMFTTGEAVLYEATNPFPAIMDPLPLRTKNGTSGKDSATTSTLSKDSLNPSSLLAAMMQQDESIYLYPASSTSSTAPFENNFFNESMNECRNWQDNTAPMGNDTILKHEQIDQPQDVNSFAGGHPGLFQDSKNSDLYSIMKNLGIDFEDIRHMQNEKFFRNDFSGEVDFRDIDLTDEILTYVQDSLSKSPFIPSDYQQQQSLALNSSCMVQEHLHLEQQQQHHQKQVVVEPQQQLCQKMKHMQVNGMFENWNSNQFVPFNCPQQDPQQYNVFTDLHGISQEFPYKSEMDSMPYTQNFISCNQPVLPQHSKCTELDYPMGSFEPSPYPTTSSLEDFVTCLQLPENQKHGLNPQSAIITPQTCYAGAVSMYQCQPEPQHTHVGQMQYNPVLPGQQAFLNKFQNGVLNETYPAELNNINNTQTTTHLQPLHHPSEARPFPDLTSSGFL

Chain of 26S proteasome non-ATPase regulatory subunit 14 (O00487 whole entry): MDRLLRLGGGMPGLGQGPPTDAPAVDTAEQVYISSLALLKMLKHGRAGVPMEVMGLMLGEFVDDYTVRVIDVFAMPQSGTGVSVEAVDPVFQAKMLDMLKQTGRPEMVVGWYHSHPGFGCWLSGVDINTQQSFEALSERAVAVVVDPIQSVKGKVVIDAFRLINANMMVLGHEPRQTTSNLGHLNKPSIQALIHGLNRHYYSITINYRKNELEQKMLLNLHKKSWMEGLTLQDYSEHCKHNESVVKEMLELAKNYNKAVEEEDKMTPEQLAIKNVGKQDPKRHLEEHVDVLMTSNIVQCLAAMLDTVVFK
Chain of 72 kDa type IV collagenase (P08253 whole entry): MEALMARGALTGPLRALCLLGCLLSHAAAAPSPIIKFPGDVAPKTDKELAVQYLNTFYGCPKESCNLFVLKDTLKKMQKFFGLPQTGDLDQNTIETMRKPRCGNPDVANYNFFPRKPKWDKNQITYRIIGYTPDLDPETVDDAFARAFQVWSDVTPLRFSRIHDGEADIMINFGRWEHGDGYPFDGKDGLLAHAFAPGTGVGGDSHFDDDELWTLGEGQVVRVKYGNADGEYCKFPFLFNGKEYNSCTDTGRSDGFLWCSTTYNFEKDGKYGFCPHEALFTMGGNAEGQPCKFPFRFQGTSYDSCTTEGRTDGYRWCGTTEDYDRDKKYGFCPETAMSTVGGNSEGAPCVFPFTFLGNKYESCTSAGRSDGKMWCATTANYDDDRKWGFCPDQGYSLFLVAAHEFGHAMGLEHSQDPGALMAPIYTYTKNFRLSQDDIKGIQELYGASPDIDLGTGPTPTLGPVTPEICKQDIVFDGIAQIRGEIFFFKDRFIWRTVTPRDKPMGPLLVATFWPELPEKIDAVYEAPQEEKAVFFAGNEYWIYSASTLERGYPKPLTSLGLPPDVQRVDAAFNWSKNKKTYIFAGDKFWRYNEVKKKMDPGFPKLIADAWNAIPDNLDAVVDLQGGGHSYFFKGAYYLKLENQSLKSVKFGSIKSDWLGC
Chain of Ras and Rab interactor 1/Tyrosine-protein kinase ABL1 (P00519 whole entry): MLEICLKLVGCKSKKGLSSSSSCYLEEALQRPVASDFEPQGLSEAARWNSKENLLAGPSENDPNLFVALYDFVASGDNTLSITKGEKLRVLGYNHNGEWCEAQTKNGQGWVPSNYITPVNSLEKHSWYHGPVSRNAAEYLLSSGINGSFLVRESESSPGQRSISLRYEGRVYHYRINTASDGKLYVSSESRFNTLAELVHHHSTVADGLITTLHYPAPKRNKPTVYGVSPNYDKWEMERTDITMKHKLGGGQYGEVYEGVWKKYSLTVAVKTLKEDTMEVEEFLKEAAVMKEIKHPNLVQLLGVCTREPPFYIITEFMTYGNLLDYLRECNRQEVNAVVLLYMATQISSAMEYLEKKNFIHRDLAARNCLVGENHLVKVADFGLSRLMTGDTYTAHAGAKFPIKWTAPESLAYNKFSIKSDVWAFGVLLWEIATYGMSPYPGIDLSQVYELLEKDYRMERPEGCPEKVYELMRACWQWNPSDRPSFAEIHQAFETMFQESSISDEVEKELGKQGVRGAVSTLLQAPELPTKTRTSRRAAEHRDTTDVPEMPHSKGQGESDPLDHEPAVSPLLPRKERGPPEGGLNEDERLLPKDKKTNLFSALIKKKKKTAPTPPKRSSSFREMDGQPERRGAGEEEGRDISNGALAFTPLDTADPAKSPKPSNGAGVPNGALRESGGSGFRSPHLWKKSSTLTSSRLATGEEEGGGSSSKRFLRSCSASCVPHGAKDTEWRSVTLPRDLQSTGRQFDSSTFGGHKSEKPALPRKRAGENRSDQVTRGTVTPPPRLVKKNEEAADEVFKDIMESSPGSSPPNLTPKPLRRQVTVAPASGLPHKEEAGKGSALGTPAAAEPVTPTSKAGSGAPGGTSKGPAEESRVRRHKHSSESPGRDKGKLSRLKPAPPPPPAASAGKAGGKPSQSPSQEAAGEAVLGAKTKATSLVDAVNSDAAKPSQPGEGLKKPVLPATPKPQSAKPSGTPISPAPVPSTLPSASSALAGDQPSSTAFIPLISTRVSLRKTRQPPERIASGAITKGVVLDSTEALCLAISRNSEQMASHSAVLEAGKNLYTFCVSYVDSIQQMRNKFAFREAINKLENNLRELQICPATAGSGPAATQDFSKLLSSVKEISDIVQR
Chain of Ras and Rab interactor 1/Tyrosine-protein kinase ABL1 (Q13671 whole entry): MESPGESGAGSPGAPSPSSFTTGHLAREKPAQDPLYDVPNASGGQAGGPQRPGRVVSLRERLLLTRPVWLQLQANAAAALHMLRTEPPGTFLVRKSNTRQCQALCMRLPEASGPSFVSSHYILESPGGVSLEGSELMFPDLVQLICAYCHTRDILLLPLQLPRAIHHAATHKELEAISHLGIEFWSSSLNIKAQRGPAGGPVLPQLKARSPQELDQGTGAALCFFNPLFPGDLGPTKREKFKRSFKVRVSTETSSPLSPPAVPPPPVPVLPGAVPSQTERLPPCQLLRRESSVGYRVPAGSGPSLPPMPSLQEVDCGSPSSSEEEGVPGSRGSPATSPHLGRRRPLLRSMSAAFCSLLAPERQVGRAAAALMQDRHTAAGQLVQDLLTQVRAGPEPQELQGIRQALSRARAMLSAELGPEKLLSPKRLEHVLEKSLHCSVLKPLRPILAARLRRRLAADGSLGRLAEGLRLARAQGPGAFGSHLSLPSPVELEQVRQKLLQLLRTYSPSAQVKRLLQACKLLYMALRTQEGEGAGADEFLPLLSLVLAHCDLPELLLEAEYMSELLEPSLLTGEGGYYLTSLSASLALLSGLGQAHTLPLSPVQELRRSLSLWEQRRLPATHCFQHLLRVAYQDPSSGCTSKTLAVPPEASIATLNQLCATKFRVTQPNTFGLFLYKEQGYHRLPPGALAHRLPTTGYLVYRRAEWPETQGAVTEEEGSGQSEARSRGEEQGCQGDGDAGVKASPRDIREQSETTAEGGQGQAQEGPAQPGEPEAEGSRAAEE
Chain of Melanocortin receptor 4 (P32245 whole entry): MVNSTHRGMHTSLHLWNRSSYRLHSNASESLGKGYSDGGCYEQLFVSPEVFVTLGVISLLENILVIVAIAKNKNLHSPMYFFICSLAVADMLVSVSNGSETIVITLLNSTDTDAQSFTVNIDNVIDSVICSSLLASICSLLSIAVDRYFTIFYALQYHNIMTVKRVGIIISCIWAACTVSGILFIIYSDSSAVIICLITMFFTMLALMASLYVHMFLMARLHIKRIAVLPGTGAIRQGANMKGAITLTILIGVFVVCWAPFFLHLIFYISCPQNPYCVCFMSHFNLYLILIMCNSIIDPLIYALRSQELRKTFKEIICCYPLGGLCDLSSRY
Chain of Mitochondrial peptide methionine sulfoxide reductase (P54149 whole entry): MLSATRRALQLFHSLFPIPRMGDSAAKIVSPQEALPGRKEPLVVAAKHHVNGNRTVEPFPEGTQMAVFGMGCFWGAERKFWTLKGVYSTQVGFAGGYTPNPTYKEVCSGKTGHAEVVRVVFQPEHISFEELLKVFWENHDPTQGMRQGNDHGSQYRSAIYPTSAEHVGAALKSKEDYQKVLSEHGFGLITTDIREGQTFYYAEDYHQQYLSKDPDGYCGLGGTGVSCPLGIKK
Chain of Cytochrome P450 3A4 (P08684 whole entry): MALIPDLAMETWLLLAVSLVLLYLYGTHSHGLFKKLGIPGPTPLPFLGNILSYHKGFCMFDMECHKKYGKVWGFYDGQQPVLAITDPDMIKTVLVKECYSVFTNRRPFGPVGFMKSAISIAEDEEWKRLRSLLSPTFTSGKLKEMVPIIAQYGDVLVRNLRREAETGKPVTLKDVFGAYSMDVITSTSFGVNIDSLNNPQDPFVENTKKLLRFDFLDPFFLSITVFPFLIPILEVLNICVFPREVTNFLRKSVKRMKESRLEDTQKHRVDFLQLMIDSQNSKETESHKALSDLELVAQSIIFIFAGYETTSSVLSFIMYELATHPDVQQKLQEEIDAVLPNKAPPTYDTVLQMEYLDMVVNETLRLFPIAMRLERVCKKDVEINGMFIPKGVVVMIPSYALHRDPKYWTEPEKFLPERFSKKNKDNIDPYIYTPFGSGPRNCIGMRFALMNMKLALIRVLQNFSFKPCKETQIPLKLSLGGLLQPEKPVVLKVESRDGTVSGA
Chain of Intestinal-type alkaline phosphatase (Mus musculus, UniProt P24822) (P24822 whole entry): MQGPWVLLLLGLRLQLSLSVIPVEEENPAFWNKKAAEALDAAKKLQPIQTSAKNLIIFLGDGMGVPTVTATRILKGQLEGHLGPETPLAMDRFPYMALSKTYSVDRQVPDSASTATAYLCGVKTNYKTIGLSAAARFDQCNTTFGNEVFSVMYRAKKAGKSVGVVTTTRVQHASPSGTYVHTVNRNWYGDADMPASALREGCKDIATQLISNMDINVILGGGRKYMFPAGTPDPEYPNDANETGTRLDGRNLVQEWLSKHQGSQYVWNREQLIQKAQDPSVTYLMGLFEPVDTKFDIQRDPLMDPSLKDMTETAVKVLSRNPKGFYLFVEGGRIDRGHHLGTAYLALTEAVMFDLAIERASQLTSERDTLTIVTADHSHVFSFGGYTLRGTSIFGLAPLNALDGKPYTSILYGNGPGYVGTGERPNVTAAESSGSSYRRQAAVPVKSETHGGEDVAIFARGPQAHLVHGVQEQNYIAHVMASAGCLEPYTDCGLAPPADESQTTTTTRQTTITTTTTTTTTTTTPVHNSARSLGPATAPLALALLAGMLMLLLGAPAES
Chain of Beta Lactamase (Q932Y6 whole entry): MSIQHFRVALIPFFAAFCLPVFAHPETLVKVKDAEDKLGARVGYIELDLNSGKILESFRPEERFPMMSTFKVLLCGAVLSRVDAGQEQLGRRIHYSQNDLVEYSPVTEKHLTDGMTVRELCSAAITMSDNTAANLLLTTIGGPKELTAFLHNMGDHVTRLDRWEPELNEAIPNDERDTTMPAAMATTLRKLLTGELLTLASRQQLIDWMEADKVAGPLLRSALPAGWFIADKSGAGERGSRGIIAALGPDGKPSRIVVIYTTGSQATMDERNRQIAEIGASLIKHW

## CCCN1C(=O)/C(=C/c2ccc(N3CCCC3)c(C)c2)NC1=S
[1]
  IC50: 6.66 µM (active)
[2]
  IC50: > 100 µM (inactive)
[3]
  IC50: 32.1 µM (inactive)
[4]
  EC50: 3.84 µM (active)

## Clc1cccc(Cl)c1Cn1cnc(NCc2ccco2)c2ncnc1-2
[5]
  IC50: 4.06 µM (active)
[6]
  IC50: 9.54 µM (active)

## CC(=O)Nc1ccc(S(=O)(=O)Nc2ccc(S(=O)(=O)Nc3nc(C)cc(C)n3)cc2)cc1
[7]
  AC50: 19.7 µM (active)

## COc1ccc(C(=O)OCC(=O)Nc2ncc([N+](=O)[O-])s2)cc1OC
[8]
  AC50: 4.75 µM (active)
[9]
  AC50: 20.8 µM (active)
[10]
  IC50: 4.45 µM (active)
[11]
  IC50: 72.6 µM (active)
[12]
  IC50: 23.7 µM (active)
[13]
  IC50: 8.79 µM (active)

## S=C1NC2(CCCC2)Nc2ccccc21
[14]
  IC50: 53.6 µM (inactive)

## CCN1CCN(CCNC(=O)c2ccc(/C=C3\Sc4ccccc4N(Cc4ccccc4F)C3=O)cc2)CC1
[15]
  EC50: > 60 µM (not active)
[16]
  IC50: 22.8 µM (active)
[17]
  EC50: 2.03 µM (active)
[18]
  EC50: > 89.2 µM (inactive)

## CCOc1ccc2nc(N(CCN(C)C)C(=O)c3cc4ccccc4cc3OC)sc2c1
[2]
  IC50: > 100 µM (inactive)
[19]
  IC50: 52 µM (inactive)

## COc1cc(/C=C(\C#N)C(=O)Nc2cc(C(F)(F)F)ccc2Cl)ccc1OCC(=O)Nc1cccc(C(F)(F)F)c1
[20]
  IC50: 32.5 µM (active)
[21]
  IC50: 40.2 µM (active)
[22]
  IC50: > 100 µM (inactive)

## COc1cc(C(=O)Nc2ccc(S(=O)(=O)N3CCCCC3C)cc2)cc(OC)c1OC (centres undefined)
[7]
  AC50: 19.8 µM (active)

## CN(Cc1ccccc1)C(=O)c1ccc(NC(=O)Cc2ccc(NC(=O)C3CCN(C(=O)C4CCCC4)CC3)cc2)cc1
[19]
  IC50: 20.7 µM (inactive)

## CCCC/N=c1\scc(-c2ccc3c(c2)NC(=O)CO3)n1N=C1CCCC1
[20]
  IC50: 26.6 µM (active)
[21]
  IC50: 27.7 µM (active)
[22]
  IC50: > 100 µM (inactive)

## CCOc1ccc(C(=O)N/N=C/c2cc(Cl)ccc2[N+](=O)[O-])cc1
[20]
  IC50: 19.3 µM (active)
[21]
  IC50: 59.3 µM (active)
[22]
  IC50: > 100 µM (inactive)

## O=C(N/N=C/c1ccc(OCc2ccccc2)cc1)c1cccs1
[23]
  AC50: 39.8 µM (inconclusive)
[18]
  EC50: > 89.2 µM (inactive)

## CC1OC(O[C@@H]2C=C3CC[C@@H]4[C@H](CC[C@]5(C)[C@@H](c6ccc(=O)oc6)CC[C@]45O)[C@@]3(C)CC2)C(O)C(OC2OC(CO)C(O)C(O)C2O)C1O (some centres undefined)
[24]
  GI50: 45.3 µM (inactive)
[25]
  GI50: 0.025 µM (active)
[26]
  GI50: 51.3 µM (inactive)

## CN(/N=C/C=C/c1ccccc1)c1cc(=O)n(C)c(=O)[nH]1
[14]
  IC50: 155 µM (inactive)

## CON=C(C(=O)OC)c1ccccc1CO/N=C(\C)c1cccc(C(F)(F)F)c1
[27]
  AC50: 63.1 µM (inconclusive)

## Cc1ccc(/N=C/N(C)/C=N/c2ccc(C)cc2C)c(C)c1 [AMITRAZ]
[27]
  AC50: 50.1 µM (inconclusive)

Reference: ChEMBL document CHEMBL1201862, “PubChem BioAssay data set” (2004)
